Assays:
sourgrass = assay: Test D sourgrass; assay type: in vivo, Trichachne insularis; conditions: Preemergence, 0 to 100 scale
Excerpt: (§1) Seeds, tubers, or plant parts of Alexandergrass (Brachiaria plantaginea), bermuda-grass (Cynodon dactylon), common pursiane (Portulaca oleracea), common ragweed (Ambrosia elatior), common groundsel (Senecio vulgaris), dallisgrass (Paspalum dilatatum), goosegrass (Eleusine indica), guineagrass (Panicum maximum), itchgrass (Rottboellia exaltata), Johnson grass (Sorghum halepense), large crabgrass (Digitaria sanguinalis), pitted morningglory (Ipomoea lacunosa), purple nutsedge (Cyperus rotundus), sandbur (Cenchrus echinatus), sourgrass (Trichachne insularis), Spanishneedles (Bidens bipinnata), surinam grass (Brachiaria decumbens) and tall mallow (Malva sylvestris) were planted into greenhouse pots of flats containing greenhouse planting medium. Plant species were grown in separate pots or individual compartments. Preemergence applications were made within one day of planting the seed or plant part.
(§2) Test chemicals were formulated in a non-phytotoxic solvent mixture which included a surfactant and applied preemergence to the surface of the pot containing seeds in a sandy loam soil. Untreated control pots and treated pots were placed in the greenhouse for growth and visually evaluated for injury 14 to 21 days after herbicide application. Plant response ratings, summarized in Table C, are based on a 0 to 100 scale where 0 is no injury and 100 is complete control. A dash (−) response means no test result.

Green foxtail = assay: Test D green foxtail; assay type: in vivo; conditions: Preemergence, 0 to 100 scale
Excerpt: as §1
as §2, with “A dash (−) response means no test result.” left out

Cc1cccc(C)c1-n1c(=O)on(C(=O)N(c2ccc(F)cc2F)C(C)C)c1=O [Compound 28]
Plant response rating, Sourgrass (sourgrass; Rate 32 g/ha, 0 no injury, 100 complete control): 60
Sourgrass plant response rating (sourgrass; Rate 64 g/ha, 0 no injury, 100 complete control): 85
Sourgrass plant response rating (sourgrass; Rate 125 g/ha, 0 no injury, 100 complete control): 100
Plant response rating, Sourgrass (sourgrass; Rate 250 g/ha): 100

CCn1c(=O)on(C(=O)N(c2ccc(F)cc2)C(C)C)c1=O [Compound 107]
Plant response rating, Green foxtail (Green foxtail; Rate 250 g/ha): 100
Plant response rating, Green foxtail (Green foxtail; Rate 500 g/ha): 100

Source: patent US6737383B1, “Herbicidal oxadiazolidines” (priority 1999, dated 2004)
